In ChEMBL document CHEMBL1148545, “New metabolically stable fatty acid amide ligands of cannabinoid receptors: Synthesis and receptor affinity studies” (Bioorg Med Chem Lett, 2006):

Assays:
Cannabinoid receptor 2 = Cannabinoid receptor 2 (Homo sapiens, UniProt P34972); test: Displacement of [3H]CP-55940 from human recombinant CB2 receptor
Cannabinoid receptor 1 [1] = target: T1, Cannabinoid receptor 1 (Homo sapiens, UniProt P21554); test: Displacement of [3H]CP-55940 from human recombinant CB1 receptor
[2] = target: T2, Fatty-acid amide hydrolase 1 (Rattus norvegicus, UniProt P97612); test: Inhibitory activity against rat brain FAAH by [14C]anandamide hydrolysis
T2 sequence (P97612 whole entry): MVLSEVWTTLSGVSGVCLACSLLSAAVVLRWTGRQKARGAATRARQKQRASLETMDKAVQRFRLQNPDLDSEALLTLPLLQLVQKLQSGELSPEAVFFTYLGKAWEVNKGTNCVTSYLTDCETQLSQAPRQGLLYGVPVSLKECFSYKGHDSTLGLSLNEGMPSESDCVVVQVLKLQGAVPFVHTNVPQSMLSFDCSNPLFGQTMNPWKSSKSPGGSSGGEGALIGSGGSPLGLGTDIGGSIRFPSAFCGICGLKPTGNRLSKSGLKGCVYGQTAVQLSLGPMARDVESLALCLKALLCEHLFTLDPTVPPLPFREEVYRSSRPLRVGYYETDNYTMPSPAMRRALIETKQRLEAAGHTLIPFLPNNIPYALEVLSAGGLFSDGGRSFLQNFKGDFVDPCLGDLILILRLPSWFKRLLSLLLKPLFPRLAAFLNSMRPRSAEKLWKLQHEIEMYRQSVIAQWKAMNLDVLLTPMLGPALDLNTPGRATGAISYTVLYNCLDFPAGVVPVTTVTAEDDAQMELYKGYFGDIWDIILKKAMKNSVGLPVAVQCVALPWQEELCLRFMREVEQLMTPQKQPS

Cannabinoid receptor 1 [3] = target: T1, Cannabinoid receptor 1; test: Displacement of [3H]CP-55940 from human recombinant CB1 receptor in presence of hydrolase inhibitor PMSF

Cannabinoid receptor 2, sequence (P34972 whole entry): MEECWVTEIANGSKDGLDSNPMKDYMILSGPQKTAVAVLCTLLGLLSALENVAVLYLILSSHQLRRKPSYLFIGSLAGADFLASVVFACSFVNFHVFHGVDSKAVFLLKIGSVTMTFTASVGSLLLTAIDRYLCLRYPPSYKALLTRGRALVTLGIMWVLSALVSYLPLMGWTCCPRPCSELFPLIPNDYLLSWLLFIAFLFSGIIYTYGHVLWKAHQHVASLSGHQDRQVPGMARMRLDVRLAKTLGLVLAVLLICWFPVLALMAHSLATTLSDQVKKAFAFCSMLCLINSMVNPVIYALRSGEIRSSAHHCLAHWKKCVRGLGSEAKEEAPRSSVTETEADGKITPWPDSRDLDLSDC
T1 sequence (P21554 whole entry): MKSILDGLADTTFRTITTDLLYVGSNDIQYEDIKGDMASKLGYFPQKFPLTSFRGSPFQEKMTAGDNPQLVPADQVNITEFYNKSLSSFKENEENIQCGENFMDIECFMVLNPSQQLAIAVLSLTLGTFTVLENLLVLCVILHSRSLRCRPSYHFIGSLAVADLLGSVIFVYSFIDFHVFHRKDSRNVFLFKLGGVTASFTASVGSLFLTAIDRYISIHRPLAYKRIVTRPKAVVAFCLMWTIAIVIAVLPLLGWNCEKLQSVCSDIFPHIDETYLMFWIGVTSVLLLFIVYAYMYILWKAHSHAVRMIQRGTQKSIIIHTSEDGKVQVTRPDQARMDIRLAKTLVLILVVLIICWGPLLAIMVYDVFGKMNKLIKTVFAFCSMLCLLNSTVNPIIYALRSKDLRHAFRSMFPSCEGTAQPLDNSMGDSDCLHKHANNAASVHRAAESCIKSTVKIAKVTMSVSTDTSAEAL

SMILES	Ki (Cannabinoid receptor 2)	Ki (Cannabinoid receptor 1 [1])	IC50 [2]	Ki (Cannabinoid receptor 1 [3])
CCCCCCCC/C=C/C(=O)NCCc1ccc(OC)cc1	5.1 µM	–	–	–
CCCCCCCC/C=C\CCCCCCCCCCCC(=O)Nc1ccc(N2CCOCC2)cc1	> 10 µM	6.4 µM	–	–
CCCCCCCC/C=C\CCCCCCCCCCCC(=O)Nc1ccc(OC)cc1	> 10 µM	> 10 µM	–	–
CCCCC/C=C\C/C=C\C/C=C\C/C=C\CCCC(=O)Nc1ccc(OC)cc1	4 µM	0.5 µM	–	–
CCCCCCCC/C=C/C(=O)Nc1ccc(OC)cc1	2.5 µM	–	–	–
CCCCCCCC/C=C\CCCCCCCC(=O)Nc1ccc(OC)cc1	> 10 µM	1.6 µM	> 25 µM	1.5 µM
CCCCC/C=C\C/C=C\C/C=C\C/C=C\CCCC(=O)NCCc1ccc(OC)cc1	> 10 µM	2.4 µM	–	–
CCCCCCCC/C=C\CCCCCCCCCCCC(=O)NCCc1ccc(OC)cc1OC	> 10 µM	3.7 µM	–	–
CCCCC/C=C\C/C=C\C/C=C\C/C=C\CCCC(=O)NCc1ccc(OC)cc1OC	4 µM	0.2 µM	> 25 µM	0.2 µM
CCCCC/C=C\C/C=C\C/C=C\C/C=C\CCCC(=O)NCc1cc(OC)ccc1OC	4.1 µM	0.5 µM	–	–
CCCCCCCC/C=C\CCCCCCCCCCCC(=O)NCCc1cc(OC)cc(OC)c1	> 10 µM	5.4 µM	–	–
CCCCCCCC/C=C\CCCCCCCCCCCC(=O)NCCc1ccc(OC)cc1	> 10 µM	> 10 µM	–	–
C=CCCCCCCCCC(=O)NCCc1cc(OC)cc(OC)c1	> 10 µM	> 10 µM	–	–
CCCCCCCC/C=C\CCCCCCCC(=O)Nc1ccc(N2CCOCC2)cc1	> 10 µM	> 10 µM	–	–
CCCCCCCC/C=C/C(=O)NCCc1ccc(OC)cc1OC	> 10 µM	> 10 µM	–	–
CCCCC/C=C\C/C=C\C/C=C\C/C=C\CCCC(=O)N1CCN(c2ccc(F)cc2)CC1	5.1 µM	0.3 µM	> 25 µM	0.3 µM
CCCCCCCC/C=C\CCCCCCCCCCCC(=O)NCc1ccc(OC)cc1	> 10 µM	> 10 µM	–	–
C=CCCCCCCCCC(=O)NCCc1ccc(OC)cc1OC	> 10 µM	> 10 µM	–	–

SMILES	Ki (Cannabinoid receptor 2)	Ki (Cannabinoid receptor 1 [1])	IC50 [2]	Ki (Cannabinoid receptor 1 [3])
C=CCCCCCCCCC(=O)NCc1ccc(OC)cc1	> 10 µM	> 10 µM	–	–
C=CCCCCCCCCC(=O)NCCc1ccc(OC)cc1	> 10 µM	> 10 µM	–	–
CCCCC/C=C\C/C=C\C/C=C\C/C=C\CCCC(=O)NCc1ccc(OC)cc1	4.5 µM	0.6 µM	–	–
C=CCCCCCCCCC(=O)Nc1ccc(N2CCOCC2)cc1	> 10 µM	> 10 µM	–	–
CCCCCCCC/C=C\CCCCCCCC(=O)NCCc1ccc(OC)cc1OC	> 10 µM	0.8 µM	> 25 µM	0.6 µM
CCCCCCCC/C=C/C(=O)NCCc1cc(OC)cc(OC)c1	5.2 µM	2.8 µM	–	–
CCCCCCCC/C=C\CCCCCCCC(=O)NCc1ccc(OC)cc1	> 10 µM	0.5 µM	> 25 µM	0.6 µM
C=CCCCCCCCCC(=O)Nc1ccc(OC)cc1	> 10 µM	> 10 µM	–	–
CCCCCCCC/C=C/C(=O)NCc1ccc(OC)cc1	> 10 µM	> 10 µM	–	–
CCCCC/C=C\C/C=C\C/C=C\C/C=C\CCCC(=O)Nc1ccc(O)cc1	–	1.76 µM	–	–
CCCCC/C=C\C/C=C\C/C=C\C/C=C\CCCC(=O)N1CCN(c2ccc(C)c(C)c2)CC1	4.2 µM	0.4 µM	–	–
CCCCC/C=C\C/C=C\C/C=C\C/C=C\CCCC(=O)NCCc1cc(OC)cc(OC)c1	> 10 µM	> 10 µM	–	–
CCCCCCCC/C=C\CCCCCCCC(=O)NCCc1ccc(OC)cc1	> 10 µM	0.4 µM	> 25 µM	0.3 µM
CCCCC/C=C\C/C=C\C/C=C\C/C=C\CCCC(=O)Nc1ccc(N2CCOCC2)cc1	4.3 µM	0.15 µM	> 25 µM	0.15 µM
CCCCC/C=C\C/C=C\C/C=C\C/C=C\CCCC(=O)N1CCN(c2ccc(Cl)cc2)CC1	> 10 µM	0.6 µM	–	–
CCCCCCCC/C=C/C(=O)Nc1ccc(N2CCOCC2)cc1	> 10 µM	> 10 µM	–	–
CCCCCCCC/C=C\CCCCCCCC(=O)NCCc1cc(OC)cc(OC)c1	> 10 µM	1.3 µM	> 25 µM	1 µM
CCCCC/C=C\C/C=C\C/C=C\C/C=C\CCCC(=O)NCCc1ccc(OC)cc1OC	4 µM	0.5 µM	–	–
